Data on 37 compounds can be found in patent publication EP0054974A1, “Imidazolylpropanol compounds and their acid addition salts, and production and use thereof” (SUMITOMO CHEMICAL COMPANY, LIMITED, priority 1980, dated 1982).

One assay relates to Candida albicans Ohta. Kind of assay: Antifungal activity in vitro, minimum inhibitory concentration on Sabouraud's agar medium. It counts as cell-based. The source says:
(§1) The antifungal activity of some representatives of the imidazolylpropanol compounds (I) in in vitro test is as shown below.

The next assay has as its system Trichophyton rubrum. The assay is described as above. It counts as cell-based.
Text: as §1

Assay [1] concerns Candida albicans MTU12001. The description is as above. It counts as cell-based.
Text: as §1

In a further assay the test system is Candida albicans KB-8. Kind of assay: Antifungal activity in vivo (decrease of cells in the kidney of Candida-infected mice). The settings on record: for log reduction at 20 mg/kg: number of cells in kidney, 24 hours after infection; for Medicated group, number of cells in kidney: male DDY mice infected i.v. with Candida albicans KB-8, kidneys 24 hours after infection. How it is done:
The in vivo test of the antifungal activity with the said representative ones of the imidazolylpropanol compounds (I) was carried out in the following manner:
Candida albicans KB-8 cultured on the Sabroud's. agar plate admixed with blood in a concentration of 5 % by weight at 30°C for 4 days was suspended in physiologically saline solution to make a number of cells of 10^7/ml. The suspension was intravenously injected through the tail vein into 5 week old male DDY mice at a dose of 0.2 ml per mouse. […]
After 24 hours from the infection, the animals were killed and the kidneys were taken out. Each kidney was admixed with sea sand and smashed. After diluting with physiologically saline solution to give 5 times in volume, the dilution was centrifuged at 900 rpm for 5 minutes. A certain amount of the supernatant was scattered on a Sabroud's agar plate and cultured at 37°C for 48 hours. Then, the number of colonies was counted, the number of cells per one gram of the kidney was calculated, and the difference between the calculated numbers in the medicated group and in the non-medicated group was expressed by a logarithmic value.

Setting [2] is: Candida albicans, KB8, po, dose 20 mg/kg per os, read-out: Medicated/Non-medicated (logarithmic value).

Molecules are shown by their SMILES. Values after ≈ are worked out from the molar mass of the structure shown.

In general, MIC refers to the least concentration at which growth counts as inhibited. The low end stands for a more susceptible organism, the high end for a less susceptible organism. With `OC(CSc1ccccc1)(Cn1ccnc1)c1ccc(Cl)cc1Cl` (stereo not drawn), the values for the MIC (against Candida albicans Ohta; against Trichophyton rubrum; in assay [1]) were 5 µg/mL (≈ 13.2 µM), 10 µg/mL (≈ 26.4 µM) and 0.15 µg/mL (≈ 0.395 µM), respectively.
The like results for `Cc1cccc(SCC(O)(Cn2ccnc2)c2ccc(Cl)cc2Cl)c1` (stereo not drawn) were, in that order, 0.6 µg/mL (≈ 1.53 µM), 5 µg/mL (≈ 12.7 µM) and 0.15 µg/mL (≈ 0.381 µM).
The matching figures for `COc1ccc(SCC(O)(Cn2ccnc2)c2ccc(Cl)cc2Cl)cc1` (stereo not drawn): 5 µg/mL (≈ 12.2 µM), 20 µg/mL (≈ 48.9 µM) and 0.3 µg/mL (≈ 0.733 µM).
The like results for `OC(CSc1ccc(F)cc1)(Cn1ccnc1)c1ccc(Cl)cc1Cl` (stereo not drawn) were, in that order, 2.5 µg/mL (≈ 6.29 µM), 40 µg/mL (≈ 101 µM) and 0.3 µg/mL (≈ 0.755 µM).
With `OC(CSCc1ccccc1)(Cn1ccnc1)c1ccc(Cl)cc1Cl` (stereo not drawn), the values for the MIC (against Candida albicans Ohta; against Trichophyton rubrum; in assay [1]) were 2.5 µg/mL (≈ 6.36 µM), 5 µg/mL (≈ 12.7 µM) and 0.075 µg/mL (≈ 0.191 µM), respectively.
The like results for `OC(CSc1ccncc1)(Cn1ccnc1)c1ccc(Cl)cc1Cl` (stereo not drawn) were, in that order, 40 to 100 µg/mL (≈ 105 to 263 µM), 20 µg/mL (≈ 52.6 µM) and 10 µg/mL (≈ 26.3 µM).
The like results for `CC(C)SCC(O)(Cn1ccnc1)c1ccc(Cl)cc1Cl` (stereo not drawn) were, in that order, 40 µg/mL (≈ 116 µM), 5 µg/mL (≈ 14.5 µM) and 0.6 µg/mL (≈ 1.74 µM).
The like results for `CC(C)CCOCC(O)(Cn1ccnc1)c1ccc(Cl)cc1Cl` (stereo not drawn) were, in that order, 40 µg/mL (≈ 112 µM), 5 µg/mL (≈ 14 µM) and 0.6 µg/mL (≈ 1.68 µM).
For `OC(COCc1ccccc1)(Cn1ccnc1)c1ccc(Cl)cc1Cl` (stereo not drawn), the values for the MIC (in the assay with Candida albicans Ohta; in the assay with Trichophyton rubrum; in assay [1]) were 40 µg/mL (≈ 106 µM), 0.6 µg/mL (≈ 1.59 µM) and 10 µg/mL (≈ 26.5 µM), respectively.
The matching figures for `OC(COCCc1ccccc1)(Cn1ccnc1)c1ccc(Cl)cc1Cl` (stereo not drawn): 40 µg/mL (≈ 102 µM), 2.5 µg/mL (≈ 6.39 µM) and 0.6 µg/mL (≈ 1.53 µM).
The like results for `OC(COCCSc1ccccc1)(Cn1ccnc1)c1ccc(Cl)cc1Cl` (stereo not drawn) were, in that order, 20 µg/mL (≈ 47.2 µM), 5 µg/mL (≈ 11.8 µM) and 1.25 µg/mL (≈ 2.95 µM).
The matching figures for `OC(COc1ccccc1Cl)(Cn1ccnc1)c1ccc(Cl)cc1Cl` (stereo not drawn): 20 µg/mL (≈ 50.3 µM), 5 µg/mL (≈ 12.6 µM) and 1.25 µg/mL (≈ 3.14 µM).
On to `OC(CNC1CCCCC1)(Cn1ccnc1)c1ccc(Cl)cc1Cl` (stereo not drawn), for which the log reduction at 20 mg/kg in the assay on Candida albicans KB-8 (setting [2]) was determined as 1.27. Also, the “Medicated group, number of cells in kidney” value (from here on “Medicated group, number”) in the assay on Candida albicans KB-8 (dose 20 mg/kg per os) was 8.91x10^3 cell/g.
With `C=CCOCC(O)(Cn1ccnc1)c1ccc(Cl)cc1Cl` (stereo not drawn) [CH2=CH-CH2-O-], the figures for the minimal inhibitory concentration (MIC) (in the assay with Candida albicans Ohta; with Trichophyton rubrum; in assay [1]) were 40 to 100 µg/mL (≈ 122 to 306 µM), 10 µg/mL (≈ 30.6 µM) and 1.25 µg/mL (≈ 3.82 µM), respectively.
The like results for `CCCCOCC(O)(Cn1ccnc1)c1ccc(Cl)cc1Cl` (stereo not drawn) [CH3-(CH2)3-O-, 3-n-butyloxy-2-(2,4-dichlorophenyl)-l-(imidazol-l-yl)-2-propanol] were, in that order, 40 µg/mL (≈ 117 µM), 0.6 µg/mL (≈ 1.75 µM) and 5 µg/mL (≈ 14.6 µM).
The like results for `CCCCSCC(O)(Cn1ccnc1)c1ccc(Cl)cc1Cl` (stereo not drawn) [CH3-(CH2)3-S-] were, in that order, 1.25 µg/mL (≈ 3.48 µM), 0.6 µg/mL (≈ 1.67 µM) and 0.075 µg/mL (≈ 0.209 µM).
Turning to `CCCCCSCC(O)(Cn1ccnc1)c1ccc(Cl)cc1Cl` (stereo not drawn) [CH3-(CH2)4-S-], the MIC was found to be 5 µg/mL (≈ 13.4 µM) in the assay on Candida albicans Ohta, 1.25 µg/mL (≈ 3.35 µM) against Trichophyton rubrum and 1.25 µg/mL (≈ 3.35 µM) in assay [1].
Take `CCCCCCNCC(O)(Cn1ccnc1)c1ccc(Cl)cc1Cl` (stereo not drawn) [CH3-(CH2)5-NH-]: the log reduction at 20 mg/kg in the assay on Candida albicans KB-8 (setting [2]) came to 1.52. The “Medicated group, number” value in the assay with Candida albicans KB-8 (dose 20 mg/kg per os) is recorded as 1.75x10^3 cell/g.
With `CCCCCCSCC(O)(Cn1ccnc1)c1ccc(Cl)cc1Cl` (stereo not drawn) [CH3-(CH2)5-S-], the MIC in the assay with Candida albicans Ohta amounted to 2.5 µg/mL (≈ 6.45 µM); against Trichophyton rubrum it was 0.6 µg/mL (≈ 1.55 µM); in assay [1] it was 0.3 µg/mL (≈ 0.774 µM).
The like results for `CCCCCCCCSCC(O)(Cn1ccnc1)c1ccc(Cl)cc1Cl` (stereo not drawn) [CH3-(CH2)7-S-] were, in that order, 1.25 µg/mL (≈ 3.01 µM), 0.3 µg/mL (≈ 0.722 µM) and 0.15 µg/mL (≈ 0.361 µM).
For the compound `Clc1ccc(COC(Cn2ccnc2)c2ccc(Cl)cc2Cl)c(Cl)c1` (stereo not drawn) [Miconazole, 1-[2,4-Dichloro-β-(2,4-dichlorobenzyloxy)phenylethyl]imidazole, reference compound], the log reduction at 100 mg/kg with Candida albicans KB-8 (Candida albicans, KB8, po, 24 h, read-out: Medicated/Non-medicated (logarithmic value)) worked out at 0.8. Moreover, the “Medicated group, number” value with Candida albicans KB-8 (dose 100 mg/kg per os) is 2.96x10^4 cell/g.
On to `OC(CNCc1ccccc1)(Cn1ccnc1)c1ccc(Cl)cc1Cl` (stereo not drawn) [the 5th table, row 0], for which the MIC (with Candida albicans Ohta; in assay [1]) was 40 to 100 µg/mL (≈ 106 to 266 µM) in each case.
Turning to `OCCNCC(O)(Cn1ccnc1)c1ccc(Cl)cc1Cl` (stereo not drawn) [the 5th table, row 1], the MIC (in the assay on Candida albicans Ohta; in the assay on Trichophyton rubrum; in assay [1]) was 40 to 100 µg/mL (≈ 121 to 303 µM) in each case.
Regarding `OC(CNCCN1CCOCC1)(Cn1ccnc1)c1ccc(Cl)cc1Cl` (stereo not drawn) [the 5th table, row 2], the MIC (with Candida albicans Ohta; against Trichophyton rubrum; in assay [1]) was 40 to 100 µg/mL (≈ 100 to 250 µM) throughout.
Take `OC(CNCc1ccco1)(Cn1ccnc1)c1ccc(Cl)cc1Cl` (stereo not drawn) [the 5th table, row 3]: the MIC (in the assay with Candida albicans Ohta; in the assay on Trichophyton rubrum; in assay [1]) was 40 to 100 µg/mL (≈ 109 to 273 µM) throughout.
Turning to `OC(CNCC1CCCO1)(Cn1ccnc1)c1ccc(Cl)cc1Cl` (stereo not drawn) [the 5th table, row 4], the MIC (in the assay with Candida albicans Ohta; with Trichophyton rubrum; in assay [1]) was 40 to 100 µg/mL (≈ 108 to 270 µM) each time.
As for `CN1CCN(CC(O)(Cn2ccnc2)c2ccc(Cl)cc2Cl)CC1` (stereo not drawn) [the 5th table, row 5], the MIC is 40 µg/mL (≈ 108 µM) with Candida albicans Ohta, 40 to 100 µg/mL (≈ 108 to 271 µM) in the assay on Trichophyton rubrum and 2.5 µg/mL (≈ 6.77 µM) in assay [1].
The like results for `OC(CN1CCN(c2ccccc2)CC1)(Cn1ccnc1)c1ccc(Cl)cc1Cl` (stereo not drawn) [the 5th table, row 6] were, in that order, 20 µg/mL (≈ 46.4 µM), 0.6 µg/mL (≈ 1.39 µM) and 5 µg/mL (≈ 11.6 µM).
Regarding `OC(CN1CCN(Cc2ccccc2)CC1)(Cn1ccnc1)c1ccc(Cl)cc1Cl` (stereo not drawn) [the 5th table, row 7], the MIC was 40 to 100 µg/mL (≈ 89.8 to 225 µM) against Candida albicans Ohta, 20 µg/mL (≈ 44.9 µM) against Trichophyton rubrum and 40 to 100 µg/mL (≈ 89.8 to 225 µM) in assay [1].
As for `OC(CNCc1ccccc1)(Cn1ccnc1)c1ccc(Cl)cc1Cl` (stereo not drawn) [the 6th table, row 5], in the assay with Candida albicans KB-8 (setting [2]), the log reduction at 20 mg/kg was determined as 1.6. For the same compound, the “Medicated group, number” value with Candida albicans KB-8 (dose 20 mg/kg per os) was 4.17x10^3 cell/g.
Consider `OCCNCC(O)(Cn1ccnc1)c1ccc(Cl)cc1Cl` (stereo not drawn) [the 6th table, row 6], for which the log reduction at 20 mg/kg with Candida albicans KB-8 (setting [2]) was found to be 1.58. The “Medicated group, number” value in the assay with Candida albicans KB-8 (dose 20 mg/kg per os) is on record as 1.91x10^3 cell/g.
With `OC(CNCCN1CCOCC1)(Cn1ccnc1)c1ccc(Cl)cc1Cl` (stereo not drawn) [the 6th table, row 7], the log reduction at 20 mg/kg in the assay on Candida albicans KB-8 (setting [2]) came to 1.23. Besides, in the assay with Candida albicans KB-8 (dose 20 mg/kg per os), the “Medicated group, number” value is 9.78x10^3 cell/g.
The matching figures for `OC(CNCc1ccco1)(Cn1ccnc1)c1ccc(Cl)cc1Cl` (stereo not drawn) [the 7th table, row 3]: 1.05 and 5.13x10^3 cell/g.
The matching figures for `OC(CNCC1CCCO1)(Cn1ccnc1)c1ccc(Cl)cc1Cl` (stereo not drawn) [the 7th table, row 4]: 1.01 and 5.62x10^3 cell/g.
For the compound `CN1CCN(CC(O)(Cn2ccnc2)c2ccc(Cl)cc2Cl)CC1` (stereo not drawn) [the 7th table, row 5], in the assay on Candida albicans KB-8 (setting [2]), the log reduction at 20 mg/kg stood at 1.59. Besides, the “Medicated group, number” value with Candida albicans KB-8 (dose 20 mg/kg per os) is 8.32x10^3 cell/g.
The matching figures for `OC(CN1CCN(c2ccccc2)CC1)(Cn1ccnc1)c1ccc(Cl)cc1Cl` (stereo not drawn) [the 7th table, row 6]: 1.58 and 1.52x10^3 cell/g.
The like results for `OC(CN1CCN(Cc2ccccc2)CC1)(Cn1ccnc1)c1ccc(Cl)cc1Cl` (stereo not drawn) [the 7th table, row 7] were, in that order, 1.15 and 4.09x10^3 cell/g.
